Assay results taken from US11529323B2 (priority 2017, dated 2022).

Legend:
Assay type in all cases: in vivo, mouse
[1] = test system: C-26 colon adenocarcinoma cachexia model; test: Initial AR-42/GTx-024 combination study (Study 1), C-26 model; details: for effect on gastrocnemius and quadriceps mass: monotherapy (GTx-024 15 mg/kg; AR-42 10 mg/kg)
Procedure: These studies were performed as previously described (Tseng Y C, et al. J Natl Cancer Inst. 2015 107(12):djv274) with modifications. Tumors were established in the right flank by subcutaneous injection of C-26 cells (0.5×10^6 cells in 0.1 mL). […] TFM-4AS-1 (a potent experimental SARM), dihydrotestosterone (DHT) and vehicles were administered by subcutaneous injection.
Male CD2F1 mice were stratified by body weight and then randomly assigned into 6 groups of 6 animals each. Historically, 6 animals per group provided sufficient power to detect treatment-mediated differences in tumor-bearing treated animals compared to controls. Tumors were established in four of the groups, while the fifth and sixth groups served as tumor-free controls. Six days later, animals with palpable tumors were treated twice daily for 13 days. […] Body weight, tumor volume, and feed consumption were monitored every other day. Upon sacrifice on day 18, sera were collected and hind limb skeletal muscles, heart, spleen and epididymal adipose tissues were harvested, weighed, flash frozen, and stored for subsequent analyses.
Male CD2F1 mice (6-7 weeks of age; Harlan Laboratories, Indianapolis, Ind.) were group-housed under conditions of constant photoperiod (12-hour light/12-hour dark), temperature and humidity with ad libitum access to water and standard pelleted chow. […] In experiments in which food consumption was determined, the food in each cage was weighed daily and the daily decrease in food weight was divided by the number of mice in the cage. Tumor volumes were calculated from caliper measurements using a standard formula (length×width^2×π/6). Mice were euthanized by CO2 inhalation.

[2] = test system: atrogin-1 (FBXO32), MuRF-1 (TRIM63), CEBPO (CEBPD); test: qRT-PCR of atrophy-related genes in gastrocnemius muscle, Study 1; details: relative to tumor-bearing controls, GTx-024 15 mg/kg, AR-42 10 mg/kg
Procedure: FIGS. 3A-B show gene expression of multiple cachexia-associated markers in gastrocnemius muscles of individual animals from Study 1 (n=5-6 per group). Expression was determined by qRT-PCR (Geometric Mean±Geometric STD). FIG. 3A contains bar graphs showing genes associated with muscle atrophy. FIG. 3B is a bar graph showing androgen receptor (AR) mRNA expression. […] Statistics all panels: *p<0.05, ***p<0.001, ****p<0.0001 versus tumor-bearing vehicle-treated controls, Dunnett's multiple comparison test. CEBPO, n=4, insufficient sample to analyze all tumor-bearing GTx-024-treated animals.
qRT-PCR: To generate muscle tissue RNA, 15 mg of gastrocnemius muscle tissue was lysed in 10 volumes of lysis buffer per tissue mass in prefilled 2.0 ml tubes with 3.0 mm zirconium beads (MIDSCl; St. Louis, Mo.). Tubes were loaded into Beadblaster™ 24 (MIDSCl; St. Louis, Mo.) and centrifuged for 5 cycles of 5 seconds with a 30 second pause between cycles. Lysate was collected and RNA was isolated using the mirVana™ miRNA Isolation Kit, with phenol (ThermoFisher; Waltham, Mass.). Samples were treated with DNA-free DNA Removal Kit to eliminate any DNA contamination (Invitrogen, Carlsbad, Calif.). […] As transformed expression data are not normally distributed, statistical differences between treatment groups were determined by one-way ANOVA followed by Dunnett's test on raw delta Ct values.

[3] = test system: gastrocnemius transcriptome; test: RNA-seq of gastrocnemius muscles, Study 1; details: for expression of Wnt5a, Fzd1, β-catenin (CTNNB1) and GSK3B: gastrocnemius of tumor-bearing mice, AR-42: with the exception of β-catenin
Procedure: For each sample, 600 ng total RNA (Bioanalyzer RIN values>7) was used to generate polyA enriched RNA-seq libraries with the NEBNext Ultra II Directional RNA Library Prep Kit (New England Biolabs, Inc., catolog number E7760) and sequenced as PE-150 reads on HiSeq 4000 (Illumina Inc, San Diego, Calif.). Raw fastq files were adaptor trimmed using Trimmomatic (Bolger, A. M., et al. Bioinformatics 2014 30(15):2114-2120), aligned to the mm10 genome with Subread (Liao Y, et al. Nucleic Acids Res. 2013 41(10):e108), and marked for duplicate reads with Picard v2.3.0. Samtools (Li H., et al. Bioinformatics 2014 25:2078-9) was used to calculate post-alignment quality control metrics (Table 3). A gene-based counts matrix was generated with the summarizeOverlaps function of GenomicAlignments (Lawrence M, et al. PLoS Comput Biol 9(8):e1003118) and analyzed with DESeq2 (Love, M. I., et al. Genome biology 15(12):550) for genes differentially expressed among groups. GSEAPreranked analyses (Subramanian A, et al. Proc Natl Acad Sci USA. 2005 102:15545-15550) were performed using the signed log 10 p-values for each gene to test for significant enrichment of gene sets in the ‘TF Targets’ file downloaded from ge-lab.org/#/data. Any duplication in signed log 10 p-values was removed prior to running the GSEAPreranked analyses by adding a small value sampled at random from a normal distribution with mean zero and standard deviation 0.00001 to each duplicated value. GSEAPreranked analyses were performed in classic mode on gene sets with a minimum and maximum of 5 and 5000 genes in the gene set, respectively, and were followed by leading-edge analyses for selected comparison and gene set combinations. Heatmaps for RNA-seq data were generated with pheatmap using z-scores calculated from log count-per-million values obtained with the ‘cpm’ function in EdgeR (Robinson, M. D., et al. Bioinformatics 2010 26:139-140).

Compound	effect on body weight ([1]; Study 1, C-26 tumor-bearing, GTx-024 15 mg/kg monotherapy)	effect on gastrocnemius and quadriceps mass ([1]; Study 1, C-26 tumor-bearing)	per animal food consumption ([1]; Study 1, between day 14 and 16, GTx-024 in tumor-free animals, combination in tumor-bearing animals, relative to other groups)	body weight in tumor-free controls ([1]; Study 1, tumor-free mice, GTx-024 15 mg/kg)	atrogin-1, MuRF-1, or CEBPO expression [2]	expression of Wnt5a, Fzd1, β-catenin (CTNNB1) and GSK3B [3]	terminal body weight, corrected for tumor weight ([1]; Study 1, Day 18, C-26 tumor-bearing, AR-42 10 mg/kg, GTx-024 15 mg/kg, oral, 13 days)	IL-6 receptor (IL-6RA) mRNA expression in gastrocnemius ([3]; cachectic mice)
C[C@](O)(COc1ccc(C#N)cc1)C(=O)Nc1ccc(C#N)c(C(F)(F)F)c1 [GTx-024, (2S)-3-(4-cyanophenoxy)-N-(4-cyano-3-(trifluoromethyl)phenyl)-2-hydroxy-2-methylpropanamide]	did not spare body weight	did not spare	small increases in per animal food consumption	did not cause body weight loss	no significant impact	failed to restore expression to tumor-free control levels		
CC(C)[C@H](C(=O)Nc1ccc(C(=O)NO)cc1)c1ccccc1 [AR-42, (S)—N-hydroxy-4-(3-methyl-2-phenylbutanamido)benzamide]		not translated into significant improvements in gastrocnemius and quadriceps mass			significantly reduced the expression of each atrogene	effectively reversed tumor-induced regulation	93.6±7.7 % of baseline	restore non-cachectic control levels
